Results reported in US20130267422A1, “COMPOSITION FOR CONTROLLING PLANT DISEASES COMPRISING 3-PENTANOL AS EFFECTIVE COMPONENT” (Korea Research Institute Of Bioscience And Biotechnology, priority 2010, published 2013).

Experiments:
Type in all cases: in vivo
[1] = system: Pseudomonas syringae pv. lachrymans; test: Angular leaf spot disease severity in cucumber; conditions: 1 mM drench, 28 days post seeding, 7 days after spray-challenge
Procedure: FIG. 7 illustrates induction of systemic resistance by 1 mM 3-pentanol against Pseudomonas syringae pv. lachrymans. The severity of symptoms was scored from 0 to 5 as follows: 0, no symptoms; 1, yellowish color; 2, chlorosis only; 3, partial necrosis and chlorosis; 4, necrosis of the inoculated area and expanded chlorosis; and 5, complete necrosis of the inoculated area. Disease severity of cucumber treated with 3-pentanol was assessed 7 days after infection with P. syringae pv. lachrymans. Water and 1 mM BTH were used as negative and positive controls, respectively. […] Error bars indicate the standard error (n=16). […]
For pathogen challenge, a culture of the compatible bacterial pathogen Pseudomonas syringae pv. lachrymans (OD600=1 in 10 mM MgCl2) was spray-challenged on cucumber leaves until run-off at 7 days after the drench application of chemicals to roots at 21 days after seeding. The severity of symptoms was scored from 0 to 5 as follows: 0, no symptoms; 1, less than 20% diseased area; 2, 21%-40% diseased area; 3, 41%-60% diseased area; 4, 61%-80% diseased area; and 5, more than 81% diseased area of the entire leaf Bacterial pathogens were cultured overnight at 28° C. in King's B medium supplemented with the appropriate antibiotics (100 μg/mL). […] The total numbers of nymph and adult aphids were counted at 34 days after seeding. […]

cucumber mosaic virus = test: ISR against naturally occurring cucumber mosaic virus disease under field conditions; conditions: pepper, three months after final transplantation, versus control group
Source text: (§1) FIGS. 5A through 5C illustrate the effect of 3-pentanol on ISR against naturally occurring plant diseases under field conditions. FIG. 5A illustrates the effect of 3-pentanol on cucumber mosaic virus (CMV) disease three months after the treatment, FIG. 5B illustrates the symptoms of the viral disease (the photographic image was taken three months after the naturally occurring plant disease), and FIG. 5C illustrates the effect of 3-pentanol on bacterial leaf spot disease three months after treatment. The positive control group plant was treated with 0.5 mM BTH. The disease occurrence rate (i.e., 0 to 5) as an indicator of ISR was measured three months after transplantation (i.e., 0: no symptoms; 5: severe symptoms of necrosis).
(§2) 3-Pentanol, having shown ISR properties, was used for subsequent direct applications. Pepper seeds were purchased from Heungnong Jongmyo (breed; Bugang). The surface of the seeds were sterilized for 5 minutes using 1% sodium hypochlorite and rinsed with sterilized water for 5 min. The surface sterilized seeds were allowed to germinate on MS medium containing an appropriate amount of moisture. […] The disease occurrence rate was determined based on comparison and observation at 10 day intervals until Day 40. The severity of symptoms was scored as in Yang et al. 2009, Plant Pathol. […]

[2] = system: Xanthomonas axonopodis pv. vesicatoria; test: ISR screening under greenhouse conditions, bacterial spot disease in pepper; conditions: irrigation, 1 mM, second screening
Procedure: FIGS. 1A and 1B illustrate the effect of the eighteen different volatile organic compounds from Bacillus amyloliquefaciens IN937a strain on plant ISR against Xanthomonas axonopodis pv. vesicatoria under greenhouse conditions. […] The positive control plant was treated with 0.5 mM benzothiadiazole (BTH). The disease occurrence rate (i.e., 0 to 5) as an indicator of ISR was measured on Day 7 following inoculation of pathogen (i.e., 0: no symptoms; 5: severe symptoms of necrosis).
In order to determine the ISR properties of the previously selected, eighteen different volatile organic compounds from the Bacillus amyloliquefaciens IN937a strain, young pepper was grown for 3 to 4 weeks after seeding and irrigated, with the compounds present, in concentrations of 10 μM or 100 nM in 50 ml volumes. One week following irrigation treatment, the plant was exposed to Xanthomonas axonopodis pv. vesicatoria at a concentration of 10^7 CFU/ml. Symptoms of disease were observed five to seven days later, and the level of disease was measured based on a scale from 0 to 5, as described above. In a second screening, four volatile substances, selected from the first screening, were incorporated into the irrigation treatment at concentrations of 1 mM, 10 μM, 0.1 μM, and 1 nM. After exposure to pathogen, symptoms of disease were observed.

[3] = system: bacterial leaf spot disease; test: ISR against naturally occurring bacterial leaf spot disease under field conditions; conditions: pepper, three months after final transplantation
Source text: as §1, §2

aphids = test: Aphid infestation of cucumber, naturally occurring aphids; conditions: 1 mM soil drench, 34 dps
Source text: FIGS. 8A and 8B illustrate that 3-pentanol confers induced resistance against aphids in cucumber: (a), Nymph number; (b), Adult number. Bars represent the mean±SE (sample size, n=12 replications per treatment).
Cucumber plants (Cucumis sativus L. cv. backdadagi) were cultivated in an open field under natural conditions. For greenhouse experiments, seeds were directly planted in pots containing soilless medium (Punong Co. Ltd., Gyeongju, Korea) in a 24 hole plug tray under greenhouse condition. The germinated seedlings were transplanted into large pots (diameter=30 cm; height=30 cm). Chemical treatments to elicit induced resistance in cucumber were carried out. Briefly, the 14 day old cucumber seedlings were treated by direct drench application of 50 mL solution of 1 mM 3-pentanol. 3-pentanol bought from Sigma-Aldrich Co. was dissolved in distilled water before application. Treatments with 1 mM benzothiadiazole (BTH) and water were used as positive and negative controls, respectively.
For pathogen challenge, a culture of the compatible bacterial pathogen Pseudomonas syringae pv. lachrymans (OD600=1 in 10 mM MgCl2) was spray-challenged on cucumber leaves until run-off at 7 days after the drench application of chemicals to roots at 21 days after seeding. The severity of symptoms was scored from 0 to 5 as follows: 0, no symptoms; 1, less than 20% diseased area; 2, 21%-40% diseased area; 3, 41%-60% diseased area; 4, 61%-80% diseased area; and 5, more than 81% diseased area of the entire leaf Bacterial pathogens were cultured overnight at 28° C. in King's B medium supplemented with the appropriate antibiotics (100 μg/mL). As a positive control, roots were treated with 1 mM BTH. […] To investigate whether the 3-pentanol elicited plant immunity to aphid feeding, numbers of naturally occurring aphids (in 2011, Daejeon, Korea) were counted. Application of 1 mM BTH was used as a positive control. The total numbers of nymph and adult aphids were counted at 34 days after seeding. The experiments were repeated with similar results.

[4] = system: Xanthomonas axonopodis pv. vesicatoria; test: ISR under field conditions, bacterial spot disease in pepper; conditions: for disease level (ISR against bacterial spot disease): 1 mM 3-pentanol; for resistance to the disease (bacterial spot): additional 3-pentanol treatment
Procedure: FIGS. 2A and 2B illustrate the effect of 3-pentanol on plant ISR against Xanthomonas axonopodis pv. vesicatoria under field conditions at different time points. The ISR effect of 3-pentanol was measured on Day 10, Day 20, Day 30, and Day 40 after seedling transplantation. The positive control plant was treated with 0.5 mM BTH. The disease occurrence rate (i.e., 0 to 5) as an indicator of ISR was measured on Day 10 following inoculation of pathogen.
3-Pentanol, having shown ISR properties, was used for subsequent direct applications. Pepper seeds were purchased from Heungnong Jongmyo (breed; Bugang). The surface of the seeds were sterilized for 5 minutes using 1% sodium hypochlorite and rinsed with sterilized water for 5 min. The surface sterilized seeds were allowed to germinate on MS medium containing an appropriate amount of moisture. Germinated seeds, without m having any contamination, were planted in a 50-hole pot (28×54×6 cm) filled with soil for horticultural use (Punong Co., Ltd, Korea) and cultivated for six weeks in a greenhouse at 20 to 30° C. Six weeks after seeding and upon growth of seven to eight main leaves, 1 mM 3-pentanol was diluted to a volume of about 3 liters with sterilized water and poured into the 50-hole pot dish. In order to have effective soaking of the immersion solution in the soil and roots of the plant, immersion was carried out over about 24 hours. After 24-hour immersion, the young pepper plants were transplanted into a field (i.e., Chungyong-Li, Gaduk-Myon, Chungwon-Gun, Chungchongbuk-Do, South Korea 36°32′27.26″ North and 127°33′07.81″ East). The burrow to burrow distance was 1.2 m and the field was about 12.5 m to ensure the treatment areas were evenly mixed with each other. Twenty days after the final transplantation into the field, a secondary application of 1 mM 3-pentanol diluted to a volume of about 3 liters with sterilized water, was applied as 100 mL irrigation treatments for each. The test method used was as follows: after final transplantation, using a syringe, Xanthomonas axonopodis pv. vesicatoria at the concentration of 10^7 CFU/ml was exposed to the backside of the pepper leaf at intervals of 10 days until Day 40. Responses were then examined seven to ten days after exposure. The bacterial inoculant has been cultured for 48 hours at 30° C. after adding antibiotics of Rifampicin (100 μg/ml) to a solid medium. The control group received zero treatment and the treatment group received four applications. The disease occurrence rate was determined based on comparison and observation at 10 day intervals until Day 40. The severity of symptoms was scored as in Yang et al. 2009, Plant Pathol. […]

PR1 and PR4 genes = test: Expression analysis of resistance genes by qRT-PCR; conditions: pepper leaf, six hours after inoculation of pathogen
Procedure: FIGS. 3A through 3D illustrate expression of the defense-related genes PR1 and PR4 induced by 3-pentanol following inoculation of pathogen to pepper. Expression of the defense signal transduction related genes PR1 and PR4 at 10 dpt (FIG. 3A), 20 dpt (FIG. 3B), 30 dpt (FIG. 3C), and 40 dpt (FIG. 3D) was determined by quantitative RT-PCR. Relative RNA levels were calibrated and normalized to the level of CaActin mRNA. The samples were collected 6 hours post inoculation of pathogen. The positive control group plant was treated with BTH.
Expression of PR1 and PR4 genes related to the disease resistance of pepper were examined based on quantitative real time-polymerase chain reaction (qRT-PCR). The sequences of the primers used are as follows.
Following bacterial exposure to the backside of a pepper leaf, the pepper leaf was cut using scissors at 0 hours and at 6 hours and stored in liquid nitrogen. RNA isolation began with the pepper leaf being ground in liquid nitrogen using a mortar and pestle, The RNA was then extracted from the pepper leaf by using TRIzol Reagent (Invitrogen Life Technologies). […]

Row | Structure (SMILES) | less symptom severity compared to water control [1] [%] | resistance to cucumber mosaic virus (cucumber mosaic virus) | resistance to bacterial spot disease in pepper, outcome of screening [2] | resistance to bacterial leaf spot disease [3] | number of adult aphids (aphids) [per leaf] | number of aphid nymphs (aphids) [per leaf] | disease level (ISR against bacterial spot disease) ([4]; ten days after final transplantation) | disease level (ISR against bacterial spot disease) ([4]; twenty days after final transplantation) | resistance to the disease (bacterial spot) ([4]; forty days after final transplantation) | resistance to the disease (bacterial spot) ([4]; thirty days after final transplantation) | expression level of PR gene (PR1 and PR4 genes; Day 10 after final transplantation) | expression of PR gene (PR1 and PR4 genes; from Day 20 after transplantation)
1 | CCC(O)CC [3-pentanol] | 24 | significantly increased | finally selected | not different among three treatment groups | 1.0 | 21 | no difference compared to the control group | less than the control group | higher resistance to the disease compared to the control group | higher resistance to the disease compared to the control group | lower expression level of PR gene compared to the control group | the same or higher than that of the control group
2 | c1ccc2snnc2c1 [BTH, benzothiadiazole, reference compound] | – | almost the same | – | not different among three treatment groups | 0.4 | 20 | – | – | – | – | – | –
